Earlier results, collected in US9023374B2, “Sanitizing compositions” (priority 2009, dated 2015).
Where two headings read alike, the source gives them in different places.

Tests used:
feline calicivirus [1] = details: room temperature
feline calicivirus [2] = test system: feline calicivirus

SMILES | log10 reduction of feline calicivirus (feline calicivirus [1]; after 8 minutes) [log10] | log10 reduction of feline calicivirus (feline calicivirus [1]; after 30 minutes) [log10] | inactivation of feline calicivirus (feline calicivirus [2])
CCO [70% w/w ethanol, ethanol] | < 2 | 3 | 
CCO [ethanol] |  |  | failed to inactivate the virus
